Test results as given in PMC6143478, “Lipophilic activated ester prodrug approach for drug delivery to the intestinal lymphatic system” (Journal of Controlled Release, 2018).
“Also recorded” adds a separate entry of the source.

Assays:
[1] = system: human chylomicrons (CM); test: Ex vivo association with human plasma-derived chylomicrons; type: in vitro ADME; conditions: in words; for association with human chylomicrons (CM): 1.755 μM, 37 °C, 1 h, relative to parent drug
From the text: The protocol for preparation of human plasma-derived CM emulsion was approved by the Faculty of Medicine and Health Sciences Research Ethics Committee, Queens Medical Centre, Nottingham University Hospitals (BT12102015 CBS SoP). Healthy male volunteers of 19–40 years old and with body mass index of 18.5–25.0 were enrolled in the study after providing informed consent. The participants were excluded if any medication was used within one week prior to enrolment. On the morning of the study, participants received a high-fat meal (equivalent to a full English breakfast). Between 3 and 4 h following breakfast, 30 mL of blood was collected using heparinised tubes (Vacutainer® Blood Collection Tubes) and centrifuged (800 g, 10 min, 15 °C) to obtain plasma.
CM separation was performed as previously reported with minor modifications. Briefly, KBr (0.57 g) was mixed with 4 mL of plasma to yield density of 1.1 g/mL. PBS with densities of 1.006, 1.019, and 1.063 g/mL were prepared by adding appropriate amounts of KBr. These PBS of different densities were layered on top of the plasma to build density gradient layers in polyallomer ultracentrifuge tubes. The samples were then centrifuged at 268,350 g for 35 min at 15 °C using an ultracentrifuge (SORVALL® TH-641 Rotor, Thermo Fisher Scientific, UK). Following ultracentrifugation, approximately 1 mL of the upper layer containing CM was collected. TG concentration of CM emulsion was assessed using the TG enzymatic kit (Sigma Aldrich, Dorset, UK). TG concentration of the emulsion was adjusted to 100 mg/dL by diluting with PBS of 1.006 g/mL density. The CM emulsion was stored at 4 °C until the association assay (˂24 h).
(§1) The association of the compounds with artificial lipid particle emulsion and human CM was assessed using previously reported methodology with minor modifications. Briefly, 1 mL of artificial lipid particle or CM emulsions (TG concentration 100 mg/dL) was used for the association assay. The emulsion was spiked with stock solutions of tested compounds (in acetonitrile) to give a final concentration of 1.755 μM. The reaction mixtures were incubated at 37 °C for 1 h with magnetic stirring at 300 rpm. Following the incubation, density gradient ultracentrifugation was applied as described above to isolate the artificial lipid particles or CM associated with the tested compounds from the rest of the experimental medium. All experiments were conducted in quintuplicates or above.

[2] = system: esterase from porcine liver; test: Prodrug conversion assay in FaSSIF with added esterase activity; type: in vitro ADME; conditions: esterase 20 IU/mL, 10 μM, 37 °C, 4 h; in words
Description: BEX was purchased from LC Laboratories (Woburn, MA, USA). RA (all-trans), Intralipid®, esterase from porcine liver, sodium taurocholate (NaTc), NaCl, NaF and lecithin were obtained from Sigma (Gillingham, UK). Rat plasma was purchased from Sera Laboratories (West Sussex, UK). Thiazolyl blue tetrazolium bromide (MTT), sesame oil, polyethylene glycol 400 (PEG400) and all solvents (HPLC grade or higher) were purchased from Fisher Scientific (Loughborough, UK).
The prodrugs were tested for their stability and conversion into their corresponding active drug using fasted state simulated intestinal fluid (FaSSIF) with added esterase enzyme activity (20 IU/mL), rat plasma, and postprandial rat lymph. The FaSSIF was prepared as previously described in the literature. The medium was pre-heated to 37 °C prior to the assay for 5 min. […] When the stability of the artificial emulsion-associated prodrugs was tested in plasma, the association of compounds with artificial emulsion was performed prior to stability experiments and the concentrations of the compounds in the associated emulsion were measured. […] Samples were withdrawn at pre-determined time points, and the reaction was terminated by addition of acetonitrile. […] Half-life of active drug release (t1/2) was calculated by the following equation: t1/2 = −0.693/k. […]

[3] = Biodistribution to mesenteric lymph nodes (MLN) and lymph following oral administration in rats; type: in vivo; conditions: rat
Description: The protocols for pharmacokinetic and biodistribution experiments in this study were reviewed and approved by the University of Nottingham Ethical Review Committee in accordance with the Animals [Scientific Procedures] Act 1986. Male Sprague Dawley rats (Charles River Laboratories, UK) weighing 350–380 g were used. The animals were housed in the Bio Support Unit, University of Nottingham. Continuous lymph collection was performed according to a protocol approved by the Institutional Animal Care and Use Committee at Rutgers, The State University of New Jersey. Male Sprague Dawley rats (Envigo, Inc., NJ, USA) weighing 300–350 g were used for the continuous lymph collection. Animals were allowed free access to food and water and were acclimatised for at least 6 days prior to any procedures at both institutions in a controlled-temperature environment with 12 h light/dark cycles.
Formulations were prepared as described in the above pharmacokinetic study and were delivered by an oral gavage. Animals were euthanised at pre-determined time points. Blood was collected from the posterior vena cava and lymph samples were taken from the mesenteric lymph duct. MLNs were dissected and collected as previously described. The MLNs were isolated from surrounding tissue with care not to compromise the integrity of the lymph nodes. The MLNs were homogenised (POLYTRON® PT 10–35 GT, Kinematica AG, Luzern, Switzerland) with 10 mg/mL NaF in water (1,2, w/v) on an ice bath prior to sample preparation for HPLC analysis.
A combination of protein precipitation and liquid-liquid extraction was applied to samples prior to HPLC injection. To 100 μL sample, 300 μL of acetonitrile was added for protein precipitation and then 300 μL of pH modifier was added when necessary (Supplementary Material Table S2). […] The organic layer was separated and evaporated under N2 gas. Reconstitution solvent (100 μL) was used as detailed in Supplementary Material Table S2 and 40 μL was injected into the HPLC-UV system. […] Therefore, storage and preparation of all samples were performed within the time frame and conditions of confirmed stability.
The HPLC-UV system consisting of a separation module (Waters Alliance 2695) equipped with a UV detector (Waters 996) was used for analysis. Samples in the autosampler were maintained at 4 °C and the column at 40 °C. The stationary and mobile phases were used as specified in Supplementary Material Table S2. BEX and its prodrugs were detected at 259 nm and RA and its prodrugs at 357 nm.

[4] = Prodrug conversion assay in rat plasma; type: in vitro ADME
Description: (§2) The prodrugs were tested for their stability and conversion into their corresponding active drug using fasted state simulated intestinal fluid (FaSSIF) with added esterase enzyme activity (20 IU/mL), rat plasma, and postprandial rat lymph. The FaSSIF was prepared as previously described in the literature. The medium was pre-heated to 37 °C prior to the assay for 5 min. The experiment was initiated by spiking stock solutions of prodrugs to give a final concentration of 10 μM of the prodrugs in the medium. When the stability of the artificial emulsion-associated prodrugs was tested in plasma, the association of compounds with artificial emulsion was performed prior to stability experiments and the concentrations of the compounds in the associated emulsion were measured. The emulsion was then spiked to give a concentration of 10 μM of the prodrugs in plasma. The reaction mixtures were incubated at 37 °C and shaken at 200 rpm on a temperature-controlled orbital shaker (Thermo Scientific MaxQ4000, Waltham, MA, USA) for 4 h. Samples were withdrawn at pre-determined time points, and the reaction was terminated by addition of acetonitrile. The samples were then subjected to sample preparation and analysis as described below. The natural log percentage of the prodrug concentration was plotted against incubation time, and the slope (k) was obtained from the plot. Half-life of active drug release (t1/2) was calculated by the following equation: t1/2 = −0.693/k. All experiments were conducted in triplicate.

[5] = Prodrug conversion assay in postprandial rat lymph; type: in vitro ADME; conditions: CM-rich postprandial rat lymph, ex vivo; relative to rat plasma
Description: as §2, with “The natural log percentage of the prodrug concentration was plotted against incubation time, and the slope (k) was obtained from the plot.” left out, “All experiments were conducted in triplicate.” left out

[6] = In vitro association with artificial lipid particle emulsion prepared from Intralipid; type: in vitro ADME; conditions: TG 100 mg/dL, 1.755 μM, 37 °C, 1 h, in words, relative to parent drug
Description: To prepare the artificial lipid particle emulsion, Intralipid® 20% (Sigma, Gillingham, UK) was diluted using phosphate buffered saline (PBS) to yield 100 mg/dL of triglyceride (TG) concentration. A TG enzymatic kit (Sigma Aldrich, Dorset, UK) was used to monitor the TG concentration by following manufacturer's instructions.
as §1

SMILES: C=C(c1ccc(C(=O)OC)cc1)c1cc2c(cc1C)C(C)(C)CCC2(C)C [prodrug 1]
- association with human chylomicrons (CM) [1]: equally high affinity to CM

SMILES: C=C(c1ccc(C(=O)OCCC)cc1)c1cc2c(cc1C)C(C)(C)CCC2(C)C [prodrug 4]
- association with human chylomicrons (CM) [1]: equally high affinity to CM

SMILES: C=C(c1ccc(C(=O)OCCCCCCCC)cc1)c1cc2c(cc1C)C(C)(C)CCC2(C)C [prodrug 9]
- conversion to BEX in FaSSIF with esterase [2]: too slow to be detected

SMILES: C=C(c1ccc(C(=O)OC(COC(=O)CCCCCCCCCCCCCCC)COC(=O)CCCCCCCCCCCCCCC)cc1)c1cc2c(cc1C)C(C)(C)CCC2(C)C [prodrug 13]
- concentrations of BEX in intestinal lymphatics (MLNs, lymph) relative to plasma ([3]; BEX analyte, dose equivalent to 10 mg/kg BEX, in words): comparable to that in plasma
- intact form of prodrug in samples ([3]; plasma, MLN, lymph, any time point): not found in any sample at any time point
- conversion to BEX in rat plasma ([4]; in vitro, 10 μM, 37 °C, 4 h, in words): BEX was not released; also recorded: not observed

SMILES: C=C(c1ccc(C(=O)OC(C(C)C)C(C)C)cc1)c1cc2c(cc1C)C(C)(C)CCC2(C)C [prodrug 18]
- conversion to BEX in FaSSIF with esterase [2]: too slow to be detected

SMILES: C=C(c1ccc(C(=O)OCCN(C(C)C)C(C)C)cc1)c1cc2c(cc1C)C(C)(C)CCC2(C)C [prodrug 24]
- difference in affinity for artificial emulsion versus natural human CM [1]: significant differences

SMILES: C=C(c1ccc(C(=O)OCc2oc(=O)oc2C)cc1)c1cc2c(cc1C)C(C)(C)CCC2(C)C [prodrug 25]
- half-life of active drug release in postprandial lymph [5]: prolonged
- conversion of emulsion-associated form of prodrug in rat plasma ([4]; prodrug incorporated into Intralipid lipid particles, 10 μM, relative to free form): delayed conversion
- half-life at 10 μM ([4]; rat, plasma, in vitro, 37 °C, free form, read-out: half-life of active drug release in rat plasma): 8 min

SMILES: CCOC(=O)/C=C(C)/C=C/C=C(C)/C=C/C1=C(C)CCCC1(C)C [prodrug 26]
- association with human chylomicrons (CM) [1]: improved association
- association with artificial emulsion [6]: improved association

SMILES: CC1=C(/C=C/C(C)=C/C=C/C(C)=C/C(=O)OCc2oc(=O)oc2C)C(C)(C)CCC1 [prodrug 27]
- association with human chylomicrons (CM) [1]: improved association
- association with artificial emulsion [6]: improved association
